The test system of one data set is MNT-1 cells. Nature of the data set: Drug treatment, pigmentation in MNT-1 cells. It is filed as cell-based, human. Conditions: doses equivalent to those required for inhibition of Aldh activity in culture. The text has this:
For further analyses, we focused on those novel pigmentation genes that impacted tyrosinase expression in all three genetic backgrounds. Among these were two isoforms of aldehyde dehydrogenase, Aldh1 and Aldh9, well characterized enzymes that regulate ethanol detoxification (Edenberg 2007). A number of chemical inhibitors of these enzymes have been identified (DeMaster et al. 1998), and several of these agents are clinically utilized to induce alcohol intolerance during detoxification interventions; presenting an opportunity for pharmacological validation of the contribution of Aldh activity to melanocyte pigmentation.
1×10^4 MNT-1 cells were plated in a 96 well microtiter plate. 24 hours after plating, cells were incubated with either vehicle, hydroquinone Angeli's salt, or cyanamide. 48 hours after drug treatment, cell lysates were prepared and subjected to immunoblotting with a tyrosinase and ERK antibody. Similar protocols were utilized in primary melanocytes. Melanocytes were plated in 96 well microtiter plate in the presence of drug or vehicle. 24 hours after drug treatment, melanocytes were treated with UV. Cell lysates were prepared 24 hours after UV treatment and subjected to immunoblotting. […] Cells were incubated for an additional 7 days, with one media change on day 4, prior to collection of absorbance and viability values. […]

Data set [1] relates to tyrosinase. Nature of the data set: Drug treatment, tyrosinase immunoblot in MNT-1 cells. To be noted: 5 uM, doses equivalent to those required for inhibition of Aldh activity in culture. It is filed as cell-based, human. As for the experimental part: (§1) FIG. 2A-G. Novel, pharmaceutically-tractable melanogenesis gene networks converge on tyrosinase expression. a, 4 days post transfection with the indicated siRNAs, MNT-1 whole cell lysates were prepared and analyzed by immunoblot for the indicated proteins. A non-targeting siRNA was used as a transfection control (Control). ERK1/2 is shown as a loading control. b, Those siRNAs that inhibited tryosinase accumulation were examined for consequences on Tyrosinase and MITF gene expression by quantitative rt-PCR. c, The indicated siRNAs, targeting novel pigmentation genes identified in the MNT-1 screen, were tested for consequences on tyrosinase protein accumulation in darkly pigmented primary human melanocyte cultures 6 days post transfection as in a. d, The indicated siRNAs, targeting novel pigmentation genes identified in the MNT-1 screen, were tested for consequences on tyrosinase protein accumulation in moderately pigmented primary human melanocyte cultures 6 days post transfection as in a. e, Pharmacological inhibition of Aldh activity impacts tyrosinase protein accumulation. […] Tyrosinase and ERK1/2 levels were assessed by immunoblot. […]
(§2) 1×10^4 MNT-1 cells were plated in a 96 well microtiter plate. […] Cells were incubated for an additional 7 days, with one media change on day 4, prior to collection of absorbance and viability values. […]

The test system of data set [2] is tyrosinase. Nature of the data set: UV-induced tyrosinase expression in primary melanocytes, immunoblot. Conditions: cyanamide 100 uM, UV-B 24 hours post treatment. It counts as cell-based, human. The protocol:
as §1, §2

For data set [3], the system named is primary human melanocytes. Nature of the data set: Pigment production in darkly pigmented primary human melanocytes, 7 days with drug. It counts as cell-based. Conditions: seven days. The protocol:
as §1, §2

The subject of a further data set is melanoma cells. To be noted: cited from earlier work.
The test system of data set [4] is primary human melanocytes. Conditions: Hall and Orlow 2005; cited from earlier work.
The subject of data set [5] is tyrosinase. Nature of the data set: Bafilomycin rescue of tyrosinase accumulation after siRNA depletion, immunoblot. It counts as cell-based, human. To be noted: MNT-1 cells, 25 nM bafilomycin. As for the experimental part: FIG. 2A-G. Novel, pharmaceutically-tractable melanogenesis gene networks converge on tyrosinase expression. a, 4 days post transfection with the indicated siRNAs, MNT-1 whole cell lysates were prepared and analyzed by immunoblot for the indicated proteins. A non-targeting siRNA was used as a transfection control (Control). ERK1/2 is shown as a loading control. b, Those siRNAs that inhibited tryosinase accumulation were examined for consequences on Tyrosinase and MITF gene expression by quantitative rt-PCR. c, The indicated siRNAs, targeting novel pigmentation genes identified in the MNT-1 screen, were tested for consequences on tyrosinase protein accumulation in darkly pigmented primary human melanocyte cultures 6 days post transfection as in a. d, The indicated siRNAs, targeting novel pigmentation genes identified in the MNT-1 screen, were tested for consequences on tyrosinase protein accumulation in moderately pigmented primary human melanocyte cultures 6 days post transfection as in a. e, Pharmacological inhibition of Aldh activity impacts tyrosinase protein accumulation. MNT-1 cells (left panel) and primary melanomcyte cultures (right panels) were exposed to 5 uM Aldh inhibitors (cyanamide or Angeli's salt) or the tyrosinase inhibitor hydroxyquinone(Kim and Uyama 2005) for 72 hours as indicated. 24 hours post treatment, cultures were exposed to UV-B at the doses indicated. Tyrosinase and ERK1/2 levels were assessed by immunoblot. […] Subsequently, cells were lysed in Cell Titer Glo and the luminescence and absorbance values were used to calculate inhibition of pigmentation as in FIG. 1a. g, MNT-1 cells transfected with the indicated siRNAs as in a were incubated in the presence and absence of bafilomycin A2 for 24 hours prior to lyses and analyses of tyrosinase protein accumulation. […]
as §2

The mark [6] stands for this setting: 24 hour inhibition of lysosome acidification.

With `N#CN` [cyanamide], the pigmentation result with MNT-1 cells is listed as “inhibited pigmentation”. The tyrosinase protein accumulation entry with tyrosinase [1] is listed as “inhibited”. For the same compound, the UV-induced tyrosinase expression entry in the data set on tyrosinase [2] is on record as “impaired UV-induced tyrosinase expression”. Further, the melanogenesis entry in data set [3] is reported as “impair melanogenesis”. Moreover, the toxicity entry in the data set with melanoma cells is given as “non-toxic”.
On to `NC(=S)Nc1ccccc1` [PTU, phenylthiourea], for which, in data set [4], the “in vitro pigment inhibition” value is “most potent currently known in vitro pigment inhibitor”.
`CO/C1=C\C(C)=C\[C@@H](C)[C@@H](O)[C@@H](C)C/C(C)=C/C=C/[C@H](OC)[C@@H]([C@@H](C)[C@@H](O)[C@H](C)[C@@]2(O)C[C@@H](O)[C@H](C)[C@@H](C(C)C)O2)OC1=O` [bafilomycin, bafilomycin A]: the “tyrosinase accumulation upon depletion of Msra” value in the data set on tyrosinase [5] is given as “did not restore tyrosinase accumulation”. For the same compound, in the data set with tyrosinase [5] (setting [6]), the “tyrosinase accumulation upon depletion of Rab4a” value was “rescued tyrosinase accumulation” and the “tyrosinase accumulation upon depletion of Zdhhc9” value was “rescued tyrosinase accumulation”.
As for `[Na+].[Na+].[O-][N+]([O-])=NO` [Angeli's salt], the pigmentation result in the data set on MNT-1 cells is listed as “inhibited pigmentation”. Besides, in the data set with tyrosinase [1], the tyrosinase protein accumulation entry is recorded as “inhibited”. For the same compound, the UV-induced tyrosinase expression entry in the data set on tyrosinase [2] is listed as “impaired UV-induced tyrosinase expression”. In addition, in the data set with melanoma cells, the toxicity result is listed as “non-toxic”.
With `CCN(CC)C(=S)SSC(=S)N(CC)CC` [Disulfiram], the toxicity entry in the data set with melanoma cells is reported as “toxic to melanoma cells”.
